Results published in ChEMBL document CHEMBL3301361, “Experimental in vitro DMPK and physicochemical data on a set of publicly disclosed compounds”.
In brackets after ≈: the same amount, converted by molar mass.

Assays:
physchem [1] = experiment: physchem
physchem [2] = experiment: physchem; remark: listed apart in the source
physchem [3] = details: octan-1-ol/water
physchem [4] = details: pH 7.4 buffer
in vitro [5] = details: human, plasma
in vitro [6] = details: human
in vitro [7] = details: hepatocytes
in vitro [8] = details: human, hepatocytes
in vitro [9] = details: SD, HW or BN, rat, plasma

Structure (SMILES) | pKa (physchem [1]) | pKa (physchem [2]) | logD (physchem [3]; pH 7.4, LogD7.4) | further results
COc1c(C)c2c(c(O)c1C/C=C(\C)CCC(=O)OCCN1CCOCC1)C(=O)OC2 [MYCOPHENOLATE MOFETIL] | 8.01 | 6.06 | 2.26 | solubility thermodynamic (physchem [4]): 87.1 µM (≈ 37.8 µg/mL)
O=C(NS(=O)(=O)c1ccc(F)cc1)N1CCC(N2CCC(Oc3ccc(Cl)c(Cl)c3)CC2)CC1 | 3 | 8.45 | 1.79 | fraction unbound at 5 h (in vitro [5]; PPB): 0.194; microsomal CLint (in vitro [6]; microsomes): 11 µL/min/mg
O=C(NS(=O)(=O)c1ccc(Cl)cc1)N1CCC(N2CCC(Oc3ccc(Cl)c(Cl)c3)CC2)CC1 | 2.5 | 8.2 | 2.59 | fraction unbound at 5 h (in vitro [5]; PPB): 0.329; microsomal CLint (in vitro [6]; liver microsomes): 5 µL/min/mg
Nc1ncnc2c1ncn2CCOCP(=O)(O)O [ADEFOVIR] | 7.66 | 4.34 | – | –
COc1c(N2CCNC(C)C2)c(F)cc2c(=O)c(C(=O)O)cn(C3CC3)c12 (stereo not given) [GATIFLOXACIN] | 6.05 | 9.18 | -0.82 | –
Nc1nc2c(ncn2CCC(CO)CO)c(=O)[nH]1 [PENCICLOVIR] | 9.48 | 2.97 | – | –
CN(C)C1CCc2c(ccc(O)c2O)C1 (stereo not given) | 8.85 | 10.5 | – | –
NCC1Cc2c1ccc(O)c2O (stereo not given) | 10.4 | 8.5 | – | –
CCn1cc(C(=O)O)c(=O)c2cc(F)c(N3CCNCC3)nc21 [ENOXACIN] | 6.2 | 8.76 | -0.83 | fraction unbound at 5 h (in vitro [5]; PPB): 0.656
O=C(NC[C@@H](O)CN1CCC(Oc2ccc(Cl)c(Cl)c2)CC1)c1c[nH]c(=O)cc1C(F)(F)F | 8.3 | 7.7 | 2.71 | microsomal CLint (in vitro [6]; liver microsomes): 6 µL/min/mg
O=C(NCC12CC3CC(CC(C3)C1)C2)c1cc(-n2ncc(=O)[nH]c2=O)ccc1Cl | 6.2 | – | 2.1 | hepatocyte CLint (in vitro [7]): 15.3 µL/min/1e6 cells; hepatocyte CLint (in vitro [8]): 37 µL/min/1e6 cells; microsomal CLint (in vitro [6]; liver microsomes): 83.8 µL/min/mg; fraction unbound at 5 h (in vitro [9]): 0.0171
CCOC(=O)[C@H](CCc1ccccc1)N[C@@H](C)C(=O)N1CCC[C@H]1C(=O)O | 3.1 | 6.4 | – | –
CCCN(CCC)CCc1ccc(O)c(NC(C)=O)c1 | 8.75 | 10.8 | – | microsomal CLint (in vitro [6]; liver microsomes): 36 µL/min/mg
CCCN(CCC)CCc1ccc(O)c2c1CC(=O)N2 [SKF-89124A] | 8.35 | 10.2 | – | –
CC(C)(C)c1cc(NC(=O)NCc2ccccc2Sc2ccc3nnc(-c4ccccc4SCCO)n3c2)n(-c2ccc(O)c(Cl)c2)n1 [PF-03715455] | 7.17 | – | – | hepatocyte CLint (in vitro [7]): 70.8 µL/min/1e6 cells; hepatocyte CLint (in vitro [8]): 25.1 µL/min/1e6 cells; microsomal CLint (in vitro [6]; liver microsomes): > 150 µL/min/mg; fraction unbound at 5 h (in vitro [9]): 0.0013
Cc1cc(Cl)ccc1OC1CCN(C[C@H](O)CNC(=O)c2c[nH]c(=O)cc2C(F)(F)F)CC1 | 8.6 | 7.5 | 2.37 | microsomal CLint (in vitro [6]; liver microsomes): < 3 µL/min/mg
CCn1cc(C(=O)O)c(=O)c2cc(F)c(N3CCNC(C)C3)c(F)c21 (stereo not given) [LOMEFLOXACIN] | 5.82 | 8.87 | -1.1 | –
Cc1ccc(S(=O)(=O)NC(=O)N2CCC(N3CCC(Oc4ccc(Cl)c(C)c4Cl)CC3)CC2)cc1 | 3.2 | 8.7 | 2.2 | fraction unbound at 5 h (in vitro [5]; PPB): 0.179; microsomal CLint (in vitro [6]; liver microsomes): 3 µL/min/mg
NCC1CCC(C(=O)O)CC1 (stereo not given) | 4.9 | 10 | – | –
COc1ccc(COc2nc(Br)cnc2NS(=O)(=O)c2ccc(C)cc2)cc1OCCN(C)C | 5.05 | 8.8 | 1.68 | hepatocyte CLint (in vitro [7]): 31 µL/min/1e6 cells; solubility thermodynamic (physchem [4]): 77.6 µM (≈ 42.8 µg/mL); fraction unbound at 5 h (in vitro [5]; PPB): 0.0033; microsomal CLint (in vitro [6]; liver microsomes): 7 µL/min/mg
CO/N=C1\CN(c2nc3c(cc2F)c(=O)c(C(=O)O)cn3C2CC2)CC1CN (stereo not given) [GEMIFLOXACIN] | 6.36 | 8.6 | – | –
CCCN(CCC)C1CCc2c(O)cccc2C1 (stereo not given) [5-OH-DPAT] | 9.25 | 10.8 | – | –
CN1CCN(c2c(F)cc3c(=O)c(C(=O)O)cn(CCF)c3c2F)CC1 [FLEROXACIN] | 5.6 | 7.91 | – | –
NC1CCc2cc(O)c(O)cc2C1 (stereo not given) | 9.1 | 10.5 | – | –
COc1ccc(S(=O)(=O)NC(=O)N2CCC(N3CCC(Oc4ccc(Cl)c(Cl)c4)CC3)CC2)cc1 | 3.6 | 8.3 | 1.39 | fraction unbound at 5 h (in vitro [5]; PPB): 0.0127; microsomal CLint (in vitro [6]; liver microsomes): < 3 µL/min/mg
NC1CCc2c(ccc(O)c2O)C1 (stereo not given) | 8.9 | 10.5 | – | –
CCCSc1ccc2nc(NC(=O)OC)[nH]c2c1 [ALBENDAZOLE] | 10.5 | 5.88 | – | hepatocyte CLint (in vitro [7]): 83.2 µL/min/1e6 cells; logD (physchem [3]; pH 7.4): 3.24; solubility thermodynamic (physchem [4]): 1.6 µM (≈ 0.425 µg/mL); fraction unbound at 5 h (in vitro [5]): 0.0457; microsomal CLint (in vitro [6]; microsomes): 34.7 µL/min/mg; fraction unbound at 5 h (in vitro [9]): 0.0581
CNCCc1ccc(O)c(O)c1 [DEOXIEPINEPHRINE] | 8.97 | 10.9 | – | –

The next lines start with results.

pKa (physchem [1]) | pKa (physchem [2]) | logD (physchem [3]; pH 7.4, LogD7.4) | Structure (SMILES) | further results
8.1 | 3.5 | – | COC(=O)c1cc2nc([S+]([O-])Cc3ncccc3C)[nH]c2cc1C (stereo not given) [PICOPRAZOLE] | –
6.6 | 8.6 | 1.74 | CN(C)c1ccccc1S(=O)(=O)NC(=O)N1CCC(N2CCC(Oc3ccc(Cl)c(Cl)c3)CC2)CC1 | fraction unbound at 5 h (in vitro [5]; PPB): 0.0175; microsomal CLint (in vitro [6]; liver microsomes): 33 µL/min/mg
10.7 | 7.88 | -0.49 | CN1CCN(CC(=O)N2c3ccccc3C(=O)Nc3cccnc32)CC1 [PIRENZEPINE] | hepatocyte CLint (in vitro [7]): 6.76 µL/min/1e6 cells; fraction unbound at 5 h (in vitro [5]; PPB): 0.76; microsomal CLint (in vitro [6]; liver microsomes): < 3 µL/min/mg
3.4 | 8.3 | – | O=C(O)COc1ccc(Cl)cc1CN1CCCN(S(=O)(=O)Cc2ccccc2)CC1 | fraction unbound at 5 h (in vitro [5]; PPB): 0.157
8.61 | 6.17 | 3.6 | O=C(Nc1ccc(N2CCOCC2)c(F)c1)c1nnc(Nc2ccccc2F)o1 | solubility thermodynamic (physchem [4]): 1.3 µM (≈ 0.522 µg/mL)
9.05 | 3.45 | – | Nc1nc(-c2ccccc2)cc(=O)[nH]1 | –
9.5 | 2.4 | 2.26 | COCCOc1nc(N)c2[nH]c(=O)n(Cc3ccccc3)c2n1 | fraction unbound at 5 h (in vitro [5]; PPB): 0.105; microsomal CLint (in vitro [6]; liver microsomes): < 3 µL/min/mg; fraction unbound at 5 h (in vitro [9]): 0.376
4.15 | – | – | CCc1cccc2c3c([nH]c12)C(CC)(CC(=O)O)OCC3 (stereo not given) [ETODOLAC] | hepatocyte CLint (in vitro [8]): 12.9 µL/min/1e6 cells
2.4 | 3.5 | 1.27 | Cc1ccc2c(c1)c(-c1ccnc3c(C(F)(F)F)cccc13)c(C)n2CC(=O)O | fraction unbound at 5 h (in vitro [5]; PPB): 0.0038
3.18 | 6.4 | – | Nc1cc(-c2cc(C(F)(F)F)ccc2Oc2cc(F)c(S(=O)(=O)Nc3ncns3)cc2Cl)ccn1 | fraction unbound at 5 h (in vitro [9]): 0.0035
5.3 | – | 2.51 | CCC(CC)NC(=O)c1cn(-c2ccccc2)nc1NS(=O)(=O)c1ccc(C)cc1 | hepatocyte CLint (in vitro [7]): 7 µL/min/1e6 cells; solubility thermodynamic (physchem [4]): 174 µM (≈ 74.1 µg/mL); fraction unbound at 5 h (in vitro [5]; PPB): 0.0013; microsomal CLint (in vitro [6]; liver microsomes): 9 µL/min/mg; fraction unbound at 5 h (in vitro [9]): 0.0033
4.4 | 8.9 | – | O=C(O)Cc1cccc(N2CCC(CN3CCC(Oc4ccc(Cl)c(Cl)c4)CC3)CC2)c1 | –
9.45 | 4.64 | – | OCc1ccnc2c(O)cccc12 | –
4.3 | 8.7 | – | O=C(O)c1cccc(N2CCC(CN3CCC(Oc4ccc(Cl)c(Cl)c4)CC3)CC2)c1 | solubility thermodynamic (physchem [4]): 141 µM (≈ 65.5 µg/mL); microsomal CLint (in vitro [6]; liver microsomes): 6 µL/min/mg
3.3 | 8.1 | 1.5 | O=C(NS(=O)(=O)c1ccccc1)N1CCC(N2CCC(Oc3ccc(Cl)c(Cl)c3)CC2)CC1 | fraction unbound at 5 h (in vitro [5]; PPB): 0.186; microsomal CLint (in vitro [6]; liver microsomes): < 3 µL/min/mg
4.3 | 8.1 | 2.14 | O=C(NS(=O)(=O)N1CCC(N2CCC(Oc3ccc(Cl)c(Cl)c3)CC2)CC1)c1ccccc1 | –
2.9 | 8.2 | 1.09 | O=C(O)COc1cccc(C(=O)N2CCC(N3CCC(Oc4ccc(Cl)c(Cl)c4)CC3)CC2)c1 | fraction unbound at 5 h (in vitro [5]; PPB): 0.013; microsomal CLint (in vitro [6]; microsomes): < 3 µL/min/mg
7.45 | 2.35 | – | Nc1nc(O)c(Cl)c(-c2ccccc2)n1 | fraction unbound at 5 h (in vitro [5]): 0.0477; fraction unbound at 5 h (in vitro [9]): 0.0661
3.1 | 6.2 | 2.41 | Cc1cc(CN2Cc3ccccc3C[C@H]2C(=O)Nc2ccc(Cl)cc2Cl)ccc1OCC(=O)O | hepatocyte CLint (in vitro [7]): 31 µL/min/1e6 cells; solubility thermodynamic (physchem [4]): 347 µM (≈ 173 µg/mL); microsomal CLint (in vitro [6]; microsomes): 11 µL/min/mg
8.19 | 2.5 | – | CCC(=O)NC(c1cccs1)c1cc(Cl)c2cccnc2c1O (stereo not given) | microsomal CLint (in vitro [6]; microsomes): 21.4 µL/min/mg
3.4 | 8.6 | 1.23 | O=C(O)c1cccc(C(=O)N2CCC(N3CCC(Oc4ccc(Cl)c(Cl)c4)CC3)CC2)c1 | fraction unbound at 5 h (in vitro [5]; PPB): 0.0499; microsomal CLint (in vitro [6]; liver microsomes): < 3 µL/min/mg
5.77 | 9.1 | – | NC1CCN(c2c(F)cc3c(=O)c(C(=O)O)cn(C4CC4)c3c2Cl)C1 (stereo not given) [CLINAFLOXACIN] | –
3.7 | 9.3 | – | O=C(O)COc1cccc(N2CCC(CN3CCC(Oc4ccc(Cl)c(Cl)c4)CC3)CC2)c1 | hepatocyte CLint (in vitro [7]): < 3 µL/min/1e6 cells; microsomal CLint (in vitro [6]; liver microsomes): 12 µL/min/mg
3.1 | 5.6 | 2.62 | Cc1cc(CN2Cc3ccccc3C2C(=O)Nc2ccc(Cl)cc2Cl)ccc1OCC(=O)O (stereo not given) | solubility thermodynamic (physchem [4]): 479 µM (≈ 232 µg/mL); fraction unbound at 5 h (in vitro [5]; PPB): 0.0013; fraction unbound at 5 h (in vitro [9]): 0.0014
2.9 | 6.7 | – | Cc1cc(CN(CC(=O)Nc2ccc(Cl)cc2Cl)C2CCCCC2)ccc1OCC(=O)O | hepatocyte CLint (in vitro [7]): 43.4 µL/min/1e6 cells; solubility thermodynamic (physchem [4]): 813 µM (≈ 390 µg/mL); microsomal CLint (in vitro [6]; microsomes): 101 µL/min/mg
8.8 | 3.1 | – | [O-][S+](Cc1ccccn1)c1nc2ccccc2[nH]1 (stereo not given) [TIMOPRAZOLE] | –
9.61 | 4.37 | – | Cc1c(O)nc(N)nc1-c1ccccc1 | –
4.55 | 8.85 | – | O=C(O)c1ccc(N2CCC(CN3CCC(Oc4ccc(Cl)c(Cl)c4)CC3)CC2)cc1 | –
4.29 | 6.05 | – | CCCc1nc(C(C)(C)O)c(C(=O)OCc2oc(=O)oc2C)n1Cc1ccc(-c2ccccc2-c2nnn[nH]2)cc1 [OLMESARTAN MEDOXOMIL] | –
